The text below walks through data of patent US9290476B2, “Methylene linked quinolinyl modulators of RORγt” (Janssen Pharmaceutica NV, priority 2012, dated 2016).

Each structure is given as a SMILES string. Where a name gives a salt, the structure may show the parent alone. Read-outs that look alike come from different tables or passages of the source.

The subject of experiment [1] is IL-17 production by CD4 T cells. Put plainly: Human Th17 assay (IL-17 production by CD4 T cells under Th17 differentiation). It is filed as cell-based. The following applies: human CD4+ T cells, IL-17 after 3 days, read-out: Human Th17 Assay, IC50 μM. Put shortly: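 Healthy-donor peripheral CD4+ T cells (1.5×10^5/well) preincubated 1 h with titrated compound (0.2% DMSO), then differentiated with anti-CD3/CD28 beads, anti-IL4, anti-IFNγ, IL1β, IL23, IL6, TGFβ and IL2 for 3 days at 37 °C. Supernatant IL-17 quantified by MSD electrochemiluminescence against a standard curve; IC50 fitted.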

In experiment [2] the target is human RORγt ligand binding domain (RORγt LBD) (Homo sapiens (Human), UniProt P51449). Description: RORγt ThermoFluor assay (thermal shift binding affinity). The following applies: estimated from thermal shift. The procedure, abridged:
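Thermal shift used 0.065 mg/mL RORγt LBD with 60 μM 1,8-ANS in 100 mM Hepes pH 7.0, 10 mM NaCl, 2.5 mM GSH and 0.002% Tween-20, heated at 1 °C/min. Fluorescence was excited at 380–400 nm and emission read at 500 nm.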

For the next experiment, the target named is human RORγt LBD (Homo sapiens (Human), UniProt P51449). Put plainly: RORγt reporter assay (GAL4-RORγt LBD luciferase in HEK293T cells). It is filed as cell-based. Conditions: for IC50 / RORγt reporter Assay, % inhibition @ 6 μM: HEK293T cells; for IC50: 24 hours compound treatment; for inhibition at 6 µM: HEK-293T, read-out: RORγt reporter Assay, % inhibition @ 6 μM, HEK293T cells, 6 μM. Put shortly:
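HEK293T cells transiently co-transfected with GAL4-DBD–wild-type human RORγt LBD (pBIND) and GAL4-responsive firefly luciferase reporter (pGL4.31); renilla luciferase from pBIND normalises transfection/viability. Cells in phenol-red-free DMEM, 5% lipid-reduced FCS, treated with compound 24 h. Firefly/renilla ratio plotted against compound concentration.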

Sequence of human RORγt ligand binding domain (RORγt LBD) (P51449 other isoform, or with tags, fused parts or gaps): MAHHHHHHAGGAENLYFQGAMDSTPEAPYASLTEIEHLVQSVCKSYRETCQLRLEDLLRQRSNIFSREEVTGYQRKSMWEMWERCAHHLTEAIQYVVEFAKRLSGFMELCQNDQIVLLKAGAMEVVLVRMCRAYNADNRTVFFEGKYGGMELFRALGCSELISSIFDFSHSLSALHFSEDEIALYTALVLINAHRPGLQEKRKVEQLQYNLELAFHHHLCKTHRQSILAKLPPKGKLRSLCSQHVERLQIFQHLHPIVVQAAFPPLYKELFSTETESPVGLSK
Sequence of human RORγt LBD (P51449 258-518): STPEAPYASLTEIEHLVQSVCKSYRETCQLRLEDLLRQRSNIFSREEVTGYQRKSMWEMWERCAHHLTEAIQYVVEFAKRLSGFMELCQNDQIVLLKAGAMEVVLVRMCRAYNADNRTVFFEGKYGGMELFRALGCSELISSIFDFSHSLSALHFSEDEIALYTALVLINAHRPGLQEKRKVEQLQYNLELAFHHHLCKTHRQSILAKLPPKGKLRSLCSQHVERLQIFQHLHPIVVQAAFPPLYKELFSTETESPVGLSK

With `COc1nc2c(OC)cc(C(O)(c3ccc(C(F)(F)F)nc3)c3cncn3C)cc2c(Cl)c1Cc1ccc(-n2cccn2)cc1` (single isomer, unassigned) [Example 59B, (3-(4-(1H-pyrazol-1-yl)benzyl)-4-chloro-2,8-dimethoxyquinolin-6-yl)(1-methyl-1H-imidazol-5-yl)(6-(trifluoromethyl)pyridin-3-yl)methanol], in experiment [1] (Homo sapiens, CD4+ T, 72 h), the IC50 was found to be 0.098 µM. Further, the equilibrium dissociation constant (Kd) in experiment [2] is 0.0044 µM. Further, at human RORγt LBD, 0.14 µM corresponded to half-maximal inhibition (IC50) and the inhibition at 6 µM came to 106%.

Take `COc1nc2ccc(C(O)(c3ccc(C#N)cc3)c3cncn3C)cc2c(C#N)c1Cc1ccc(-n2cccn2)cc1` (single isomer, unassigned) [Example 76C, 3-(4-(1H-Pyrazol-1-yl)benzyl)-6-((4-cyanophenyl)(hydroxy)(1-methyl-1H-imidazol-5-yl)methyl)-2-methoxyquinoline-4-carbonitrile]: in experiment [1] (Homo sapiens, CD4+ T, 72 h), the concentration for half-maximal inhibition (IC50) was 0.033 µM. Moreover, in experiment [2], the Kd was 0.015 µM. Further, on human RORγt LBD, the “RORγt reporter Assay, % inhibition @ 6 μM” value is listed as 101% and it took 0.045 µM to reach half-maximal inhibition (IC50).

Regarding `COc1nc2c(C)cc(C(O)(c3ccc(Cl)cc3)c3cncn3C)cc2c(Cl)c1Cc1ccc(-n2cccn2)cc1` (single isomer, unassigned) [Example 28C, (3-(4-(1H-pyrazol-1-yl)benzyl)-4-chloro-2-methoxy-8-methylquinolin-6-yl)(4-chlorophenyl)(1-methyl-1H-imidazol-5-yl)methanol], the IC50 in experiment [1] (Homo sapiens, CD4+ T, 72 h) is 0.066 µM. The Kd in experiment [2] was 0.0058 µM. In addition, on human RORγt LBD, the “RORγt reporter Assay, % inhibition @ 6 μM” value is on record as 97% and inhibition was half-maximal at 0.087 µM (IC50).

Consider `Cn1cncc1C(O)(c1ccc(C(F)(F)F)nc1)c1ccc2nc(N3CCC3)c(Cc3ccc(-n4cccn4)cc3)c(Cl)c2c1` (single isomer, unassigned) [Example 68C, (3-(4-(1H-pyrazol-1-yl)benzyl)-2-(azetidin-1-yl)-4-chloroquinolin-6-yl)(1-methyl-1H-imidazol-5-yl)(6-(trifluoromethyl)pyridin-3-yl)methanol], for which the IC50 in experiment [1] was determined as 0.2 µM. Further, the Kd in experiment [2] is 0.03 µM. For the same compound, at human RORγt LBD, the “RORγt reporter Assay, % inhibition @ 6 μM” value is reported as 100% and the IC50 stood at 0.21 µM.

Take `COc1nc2c(F)cc(C(O)(c3ccc(C(F)(F)F)nc3)c3cncn3C)cc2c(Cl)c1Cc1ccc(-n2cccn2)cc1` (single isomer, unassigned) [Example 58B, (3-(4-(1H-pyrazol-1-yl)benzyl)-4-chloro-8-fluoro-2-methoxyquinolin-6-yl)(1-methyl-1H-imidazol-5-yl)(6-(trifluoromethyl)pyridin-3-yl)methanol]: the IC50 in experiment [1] (Homo sapiens, CD4+ T, 72 h) was found to be 0.1 µM. Also, in experiment [2], the Kd is 0.014 µM. For the same compound, on human RORγt LBD, the IC50 was found to be 0.055 µM and the inhibition at 6 µM turned out to be 103%.

Take `CCN(CC)c1nc2ccc(C(O)(c3ccc(Cl)cc3)c3cncn3C)cc2c(Cl)c1Cc1ccc(-n2cccn2)cc1` (single isomer, unassigned) [Example 75C, (3-(4-(1H-Pyrazol-1-yl)benzyl)-4-chloro-2-(diethylamino)quinolin-6-yl)(4-chlorophenyl)(1-methyl-1H-imidazol-5-yl)methanol]: the IC50 in experiment [1] (Homo sapiens, CD4+ T, 72 h) was 0.14 µM. In addition, in experiment [2], the Kd was 0.15 µM. Also, on human RORγt LBD, the “RORγt reporter Assay, % inhibition @ 6 μM” value was 90% and the IC50 stood at 0.18 µM.

In the case of `OC(c1cccnc1)(c1cccc(Cl)c1)c1ccc2nc(Cl)c(Cc3ccc(-n4cccn4)cc3)c(Cl)c2c1` (stereo not shown) [Example 5, (3-(4-(1H-Pyrazol-1-yl)benzyl)-2,4-dichloroquinolin-6-yl)(3-chlorophenyl)(pyridin-3-yl)methanol.TFA], the IC50 in experiment [1] (Homo sapiens, CD4+ T, 72 h) came out at 0.066 µM. In experiment [2], the Kd is 0.011 µM. In addition, at human RORγt LBD, half-maximal inhibition (IC50) required 0.057 µM and the inhibition at 6 µM is 117%.

In the case of `Cn1cncc1C(O)(c1ccc(C(F)(F)F)nc1)c1ccc2nc(N3CCC3)c(Cc3ccc(C(F)(F)F)cc3)c(Cl)c2c1` (single isomer, unassigned) [Example 92B, (2-(Azetidin-1-yl)-4-chloro-3-(4-(trifluoromethyl)benzyl)quinolin-6-yl)(1-methyl-1H-imidazol-5-yl)(6-(trifluoromethyl)pyridin-3-yl)methanol], the IC50 in experiment [1] amounted to 0.034 µM. Moreover, the Kd in experiment [2] is 0.012 µM. In addition, on human RORγt LBD, 0.1 µM corresponded to half-maximal inhibition (IC50) and the inhibition at 6 µM is 96%.

As for `CS(=O)(=O)c1ccc(Cc2c(Cl)nc3ccc(C(O)(c4cccnc4)c4cccc(Cl)c4)cc3c2Cl)cc1` (stereo not shown) [Example 8, (3-Chlorophenyl)(2,4-dichloro-3-(4-(methylsulfonyl)benzyl)quinolin-6-yl)(pyridin-3-yl)methanol.TFA], the IC50 in experiment [1] (Homo sapiens, CD4+ T, 72 h) stood at 0.079 µM. In addition, in experiment [2], the equilibrium dissociation constant (Kd) is 0.043 µM. For the same compound, on human RORγt LBD, the IC50 turned out to be 0.068 µM and the inhibition at 6 µM worked out at 103%.

`CON(C)c1nc2ccc(C(O)(c3ccc(C(F)(F)F)nc3)c3cncn3C)cc2c(Cl)c1Cc1ccc(-n2cccn2)cc1` (single isomer, unassigned) [Example 67B, (3-(4-(1H-pyrazol-1-yl)benzyl)-4-chloro-2-(methoxy(methyl)amino)quinolin-6-yl)(1-methyl-1H-imidazol-5-yl)(6-(trifluoromethyl)pyridin-3-yl)methanol]: in experiment [1], the IC50 was 0.01 µM. For the same compound, in experiment [2], the Kd was 0.0063 µM. For the same compound, on human RORγt LBD, the 50% inhibitory concentration (IC50) was 0.035 µM and the inhibition at 6 µM came to 101%.

`COc1nc2ccc(C(O)(c3sc(C)nc3C)c3cnnn3C)cc2c(Cl)c1Cc1ccc(C(F)(F)F)cc1` (single isomer, unassigned) [Example 79B, (4-Chloro-2-methoxy-3-(4-(trifluoromethyl)benzyl)quinolin-6-yl)(2,4-dimethylthiazol-5-yl)(1-methyl-1H-1,2,3-triazol-5-yl)methanol]: the IC50 in experiment [1] (Homo sapiens, CD4+ T, 72 h) turned out to be 0.052 µM. Besides, the Kd in experiment [2] was 0.057 µM. At human RORγt LBD, it took 0.038 µM to reach half-maximal inhibition (IC50) and the inhibition at 6 µM worked out at 99%.

Take `COc1nc2ccc(C(O)(c3cnnn3C)c3cnc(C)n3C)cc2c(C#N)c1Cc1ccc(C(F)(F)F)cc1` (single isomer, unassigned) [Example 81C, 6-((1,2-Dimethyl-1H-imidazol-5-yl)(hydroxy)(1-methyl-1H-1,2,3-triazol-5-yl)methyl)-2-methoxy-3-(4-(trifluoromethyl)benzyl)quinoline-4-carbonitrile]: the IC50 in experiment [1] turned out to be 0.002 µM. Besides, the Kd in experiment [2] was 0.00012 µM. The “RORγt reporter Assay, % inhibition @ 6 μM” value at human RORγt LBD was found to be 103%.

Consider `Cn1cncc1C(O)(c1ccc(C(F)(F)F)nc1)c1ccc2nc(N3CCC3)c(Cc3ccc(C(F)(F)F)cc3)c(Cl)c2c1` (single isomer, unassigned) [Example 92C, (2-(Azetidin-1-yl)-4-chloro-3-(4-(trifluoromethyl)benzyl)quinolin-6-yl)(1-methyl-1H-imidazol-5-yl)(6-(trifluoromethyl)pyridin-3-yl)methanol], for which the half-maximal inhibitory concentration (IC50) in experiment [1] was 0.0086 µM. Moreover, the Kd in experiment [2] was 0.0014 µM. For the same compound, at human RORγt LBD, the “RORγt reporter Assay, % inhibition @ 6 μM” value was determined as 97% and the midpoint of inhibition, the IC50, lay at 0.017 µM.

For `COc1nc2ccc(C(O)(c3ccc(C(F)(F)F)nc3)c3cncn3C)cc2c(Cl)c1Cc1ccc(C(F)(F)F)nc1` (single isomer, unassigned) [Example 94B, (4-Chloro-2-methoxy-3-((6-(trifluoromethyl)pyridin-3-yl)methyl)quinolin-6-yl)(1-methyl-1H-imidazol-5-yl)(6-(trifluoromethyl)pyridin-3-yl)methanol], the IC50 in experiment [1] was found to be 1.9 µM. The Kd in experiment [2] is 0.098 µM. Further, on human RORγt LBD, half-maximal inhibition (IC50) was put at 0.21 µM and the inhibition at 6 µM worked out at 96%.

For the compound `COc1nc2ccc(C(O)(c3ccc(C(F)(F)F)nc3)c3cncn3C)cc2c(C#N)c1Cc1ccc(-n2cccn2)cc1` (single isomer, unassigned) [Example 73C, 3-(4-(1H-Pyrazol-1-yl)benzyl)-6-(hydroxy(1-methyl-1H-imidazol-5-yl)(6-(trifluoromethyl)pyridin-3-yl)methyl)-2-methoxyquinoline-4-carbonitrile], the values for the IC50 (in experiment [1]; at human RORγt LBD) were 0.13 µM and 0.31 µM, respectively. Besides, in experiment [2], the Kd is 0.034 µM. For the same compound, at human RORγt LBD, the “RORγt reporter Assay, % inhibition @ 6 μM” value was found to be 99%.

With `COc1nc2ccc(C(O)(c3ccc(Cl)cc3)c3cncn3C)cc2c(Cl)c1Cc1ccc(S(C)(=O)=O)cc1` (stereo not shown) [Example 31, (4-Chloro-2-methoxy-3-(4-(methylsulfonyl)benzyl)quinolin-6-yl)(4-chlorophenyl)(1-methyl-1H-imidazol-5-yl)methanol.TFA], the IC50 in experiment [1] (Homo sapiens, CD4+ T, 72 h) amounted to 0.28 µM. The Kd in experiment [2] was 0.064 µM. Moreover, at human RORγt LBD, the half-maximal inhibitory concentration (IC50) amounted to 0.19 µM and the inhibition at 6 µM was determined as 103%.

Consider `COc1ccc(C(O)(c2ccc3nc(OC)c(Cc4ccc(-n5cccn5)cc4)c(Cl)c3c2)c2cncs2)cn1` (single isomer, unassigned) [Example 20B, (3-(4-(1H-pyrazol-1-yl)benzyl)-4-chloro-2-methoxyquinolin-6-yl)(6-methoxypyridin-3-yl)(thiazol-5-yl)methanol], for which the concentration for half-maximal inhibition (IC50) is 0.039 µM in experiment [1] (Homo sapiens, CD4+ T, 72 h) and 0.047 µM on human RORγt LBD. The Kd in experiment [2] was 0.0014 µM. Also, the inhibition at 6 µM at human RORγt LBD is 100%.

By IC50 is commonly meant the midpoint of a concentration-inhibition curve. The term Kd denotes the free concentration of one partner at which half of the binding sites on the other are occupied at equilibrium, for simple one-to-one binding. One may read the inhibition as the change of the read-out against control, counted positive when it falls.
